SMILES strings stand for the structures.

We go through four molecules from patent US3966745A, “Vinvamine series cycloalkyl-alkyl esters” (Synthelabo, priority 1973, dated 1976).

A short description of series [1]: Acute toxicity (LD50, mice, intraperitoneal). The following applies: mouse, in vivo, ip; intraperitoneal administration; Swiss mice of both sexes; method of Miller and Tainter. The procedure: The tests were carried out on mice of the Swiss strain of both sexes, each weighing 20 g on average. The LD50 's were calculated in accordance with the method of Miller and Tainter (Proc. Soc. exp. Biol. Med., 1944, 57, 261).

A further series has as its system mice. In words: Hypobaric anoxia in mice (survival time). Format: in vivo, male mice of the Swiss strain. The following applies: for ED (100% increase in survival time): Mus musculus, ip, intraperitoneal administration, dose which increases survival time by 100%, residual pressure 19 cm of Hg, read-out: MAD (mean active dose), absolute value; for therapeutic index relative to that of vincamine (times more favourable): from LD50 and MAD, mice, intraperitoneal, versus vincamine. The source says:
The mice are kept in an atmosphere which is depleted in oxygen by creating a partial vacuum. The degree of anoxia was chosen after preliminary tests. The survival time of the control and treated animals is noted.
The chamber into which the animals are introduced is a chemical desiccator, divided into 7 compartments. Calcium oxide is placed in this chamber in order to absorb the expired carbon dioxide. This desicator is connected to a vacuum pump and to a manometer to measure the residual pressure.
The injections are carried out using a volume of 0.5 ml per 20 g of body weight.
7 animals are introduced at the same time into the chamber, i.e. 1 control mouse (treated with physiological serum), 3 mice each treated with a different dose of a reference substance, and three mice each treated with a different dose of a test substance.
The chamber is then evacuated until the residual pressure therein is 19 cm of Hg (this is achieved in approximately 30 seconds).
The survival time i.e. the time until the animals stop breathing of each of the animals is then recorded. […] The percentage increases are calculated from values obtained for each batch of animals.
The reference substance was vincamine.

In general, LD50 refers to the dose at which mortality reaches 50%. Regarding `CCC12CCCN3CCc4c(n(c5ccccc45)C(O)(C(=O)OCC4CC4)C1)C32` (stereo not shown) [SL 72-401, Cyclopropylmethyl vincaminate], in series [1], the LD50 was determined as 220 mg/kg. The ED (100% increase in survival time) in the series on mice is 11 mg/kg.
Regarding `CCC12C=C(C(=O)OCC3CC3)n3c4c(c5ccccc53)CCN(CCC1)C42` (stereo not shown) [SL 73-005, Cyclopropylmethyl apovincaminate], the LD50 in series [1] turned out to be 380 mg/kg. In addition, in the series with mice, the ED (100% increase in survival time) was 6 mg/kg and the “therapeutic index relative to that of vincamine (times more favourable)” value stood at 2.5 times.
`CCC12CCCN3CCc4c(n(c5ccccc45)C(C(=O)OCC4CC4)C1)C32` (stereo not shown) [SL 73-041, Cyclopropylmethyl desoxyvincaminate] yielded an LD50 in series [1] of 260 mg/kg. For the same molecule, in the series with mice, the ED (100% increase in survival time) came to 6 mg/kg and the “therapeutic index relative to that of vincamine (times more favourable)” value worked out at 1.6 times.
In turn, `CC[C@]12CCCN3CCc4c(n(c5ccccc45)[C@@](O)(C(=O)OC)C1)[C@@H]32` [Vincamine, vincamine, reference compound] returned an LD50 in series [1] of 215 mg/kg. Moreover, the ED (100% increase in survival time) in the series on mice worked out at 8 mg/kg.
